Assay results published in BindingDB's records for doi:10.1096/fj.02-0026fje (Chul, 2002).

Experiments:
[1] = molecular target: T1, 17-beta-hydroxysteroid dehydrogenase type 1 (Homo sapiens, UniProt P14061); test: Enzymatic Assay (Inhibition of Type 1 17beta-HSD); settings: pH 7.4; 37 °C
T1 sequence (P14061 whole entry): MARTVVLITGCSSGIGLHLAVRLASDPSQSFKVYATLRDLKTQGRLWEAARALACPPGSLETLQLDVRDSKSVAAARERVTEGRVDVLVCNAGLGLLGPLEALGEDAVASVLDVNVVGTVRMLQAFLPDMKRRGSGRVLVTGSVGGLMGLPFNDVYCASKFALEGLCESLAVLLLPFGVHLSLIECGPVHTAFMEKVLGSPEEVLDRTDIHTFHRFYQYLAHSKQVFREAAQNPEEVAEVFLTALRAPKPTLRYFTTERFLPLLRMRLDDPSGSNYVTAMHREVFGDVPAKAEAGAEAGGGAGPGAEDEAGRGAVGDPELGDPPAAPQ
Experimental: The enzymatic reaction was performed in the reaction buffer containing substrate, [14C]-estrone, and the test inhibitors. After the reaction, radiolabeled steroids were extracted from the reaction mixture, and solvent was evaporated to dryness. Steroids were dissolved and separated on TLC plates. Radioactivity signals were detected and quantified using a PhosphoImager (Sunny Vale, CA). The percentage of transformation of [14C]-E1 into [14C]-E2 was calculated. The IC50 values were calculated using an unweighted iterative least-squares method for four-parameter logistic curve fitting (DE50 program, CHUL Research Center, Quebec).

[2] = molecular target: T1, 17-beta-hydroxysteroid dehydrogenase type 1; test: Enzyme Inhibition on the Conversion of E2 to E1 by 17beta-HSD1; settings: pH 7.5; 37 °C
Excerpt: For steady-state kinetic study of hybrid inhibitors, a Fluorolog 3 instrument was used to monitor the fluorescent signal of NADPH formed during estradiol oxidation, through which the substrate conversion is monitored. The excitation wavelength was 340 nm, and the emission wavelength was 460 nm. […] Ki was further determined by a plot of Km vs. the inhibitor concentration.

IC50 [1] [nM]	Ki [2] [µM]	Compound
140		C[C@]12CC[C@@H]3c4ccc(O)cc4CC[C@H]3[C@@H]1CC(CCCCCCCCCC(=O)OCC1OC(n3cnc4c(N)ncnc43)C(O)C1O)[C@@H]2O (stereo partly drawn) [[5-(6-amino-9H-purin-9-yl)-3,4-dihydroxyoxolan-2-yl]methyl 10-[(1S,10R,11S,14S,15S)-5,14-dihydroxy-15-methyltetracyclo[8.7.0.0^{2,7}.0^{11,15}]heptadeca-2,4,6-trien-13-yl]decanoate]
52	0.003	C[C@]12CC[C@@H]3c4ccc(O)cc4CC[C@H]3[C@@H]1CC(CCCCCCCCC(=O)OCC1OC(n3cnc4c(N)ncnc43)C(O)C1O)[C@@H]2O (stereo not given in full) [EM1745]
93		C[C@]12CC[C@@H]3c4ccc(O)cc4CC[C@H]3[C@@H]1CC(CCCCCCCC(=O)OCC1OC(n3cnc4c(N)ncnc43)C(O)C1O)[C@@H]2O (stereo partly drawn) [[5-(6-amino-9H-purin-9-yl)-3,4-dihydroxyoxolan-2-yl]methyl 8-[(1S,10R,11S,14S,15S)-5,14-dihydroxy-15-methyltetracyclo[8.7.0.0^{2,7}.0^{11,15}]heptadeca-2,4,6-trien-13-yl]octanoate]
	250	CCCCCCCCC(=O)OCC1OC(n2cnc3c(N)ncnc32)C(O)C1O (stereo not given) [[5-(6-amino-9H-purin-9-yl)-3,4-dihydroxyoxolan-2-yl]methyl nonanoate]
